Data on 2 compounds can be found in ChEMBL document CHEMBL1909496, “Malabaricone C from Myristica cinnamomea exhibits anti-quorum sensing activity” (J Nat Prod, 2011).

As usually defined, the inhibition is the change of the read-out against control, counted positive when it falls.

Data set [1] concerns Pseudomonas aeruginosa PAO1. The data set is described as follows: Inhibition of Pseudomonas aeruginosa PAO1 quorum sensing assessed as reduction of biofilm formation at 1 mg/ml after 18 hrs using crystal violet staining.
Data set [2] relates to Pseudomonas aeruginosa PAO1. The data set is described as follows: Inhibition of Pseudomonas aeruginosa PAO1 quorum sensing assessed as reduction of biofilm formation at 2 mg/ml after 18 hrs using crystal violet staining.
Data set [3] relates to Pseudomonas aeruginosa PAO1. Nature of the data set: Inhibition of Pseudomonas aeruginosa PAO1 quorum sensing assessed as reduction of biofilm formation at 3 mg/ml after 18 hrs using crystal violet staining.
The test system of data set [4] is Chromobacterium violaceum. The data set is described as follows: Inhibition of Chromobacterium violaceum CV026 quorum sensing assessed as N-3-oxohexanoyl-homoserine lactone-induced violacein production at 3 mg/ml relative to control.
The test system of data set [5] is Pseudomonas aeruginosa PAO1. Nature of the data set: Inhibition of Pseudomonas aeruginosa PAO1 quorum sensing assessed as inhibition of pycocyanin production at >/= 0.1 mg/ml after overnight incubation.
For the next data set, the system named is Pseudomonas aeruginosa. Nature of the data set: Toxicity in Pseudomonas aeruginosa PAO1 quorum sensing assessed as cell viability. The data set is classed as organism-based.
In data set [6] the test system is Pseudomonas aeruginosa PAO1. The data set is described as follows: Inhibition of LuxR-dependent quorum sensing in Pseudomonas aeruginosa PAO1 assessed as inhibition of autoinducer production.

Calls of active or inactive are those of the source. The calls are words filed in the database; no cut-off is given here.

As for `Oc1cc(O)c2c(c1)O[C@H](c1ccc(O)c(O)c1)[C@@H](O)C2`, the inhibition entry in data set [1], in data set [2] and in data set [3] was “Active” throughout.

On to `O=C(CCCCCCCCc1ccc(O)c(O)c1)c1c(O)cccc1O` [MALABARICONE C], for which the inhibition entry in data set [4] and in data set [5] was “Active” in each case. For the same compound, in the data set on Pseudomonas aeruginosa, the Activity entry is “Non-toxic”. Further, the inhibition was 44.9% in data set [1], 63% in data set [2] and 69.4% in data set [3]. Besides, the inhibition result in data set [6] is “inactive”.
